Measured values: PubChem BioAssay (NCI)
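96-well plates; 48 h exposure; 5 concentrations. Endpoints by linear interpolation between flanking doses. Not reached: highest tested concentration assigned. TGI marks complete inhibition of growth.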

Legend:
Test in all cases: NCI tumour cell line growth inhibition, 48 h
UO-31 renal = test system: UO-31 renal
MDA-MB-435 = test system: MDA-MB-435
OVCAR-8 ovarian = test system: OVCAR-8 ovarian
XF 498 CNS = test system: XF 498 CNS
HT29 colon = test system: HT29 colon
SNB-78 CNS = test system: SNB-78 CNS
LOX IMVI melanoma = test system: LOX IMVI melanoma
RPMI-8226 leukemia = test system: RPMI-8226 leukemia
UACC-257 melanoma = test system: UACC-257 melanoma
SK-OV-3 ovarian = test system: SK-OV-3 ovarian
NCI-H460 lung = test system: NCI-H460 lung
DLD-1 colon = test system: DLD-1 colon
MDA-N = test system: MDA-N
SR leukemia = test system: SR leukemia
COLO 205 colon = test system: COLO 205 colon
TK-10 renal = test system: TK-10 renal
A498 renal = test system: A498 renal
SK-MEL-2 melanoma = test system: SK-MEL-2 melanoma
K-562 leukemia = test system: K-562 leukemia
SW-620 colon = test system: SW-620 colon
HOP-18 NSCLC = test system: HOP-18 NSCLC
SK-MEL-5 melanoma = test system: SK-MEL-5 melanoma
T-47D breast = test system: T-47D breast
786-0 renal = test system: 786-0 renal
KM12 colon = test system: KM12 colon
CAKI-1 renal = test system: CAKI-1 renal
BT-549 breast = test system: BT-549 breast
UACC-62 melanoma = test system: UACC-62 melanoma
OVCAR-5 ovarian = test system: OVCAR-5 ovarian
NCI-H23 lung = test system: NCI-H23 lung
MALME-3M melanoma = test system: MALME-3M melanoma
DMS 114 small cell lung = test system: DMS 114 small cell lung
M19-MEL melanoma = test system: M19-MEL melanoma
U251 CNS = test system: U251 CNS
RXF 393 renal = test system: RXF 393 renal
A549 NSCLC = test system: A549 NSCLC
SK-MEL-28 melanoma = test system: SK-MEL-28 melanoma
NCI-H522 lung = test system: NCI-H522 lung
HCC-2998 colon = test system: HCC-2998 colon
DU-145 prostate = test system: DU-145 prostate
KM20L2 colon = test system: KM20L2 colon
SNB-19 CNS = test system: SNB-19 CNS
SF-295 CNS = test system: SF-295 CNS
EKVX NSCLC = test system: EKVX NSCLC
NCI-H226 lung = test system: NCI-H226 lung
SN12C renal = test system: SN12C renal
HL-60(TB) leukemia = test system: HL-60(TB) leukemia
HCT-116 colon = test system: HCT-116 colon
CCRF-CEM leukemia = test system: CCRF-CEM leukemia
IGROV1 ovarian = test system: IGROV1 ovarian
NCI/ADR-RES ovarian = test system: NCI/ADR-RES ovarian
SNB-75 CNS = test system: SNB-75 CNS
HOP-92 NSCLC = test system: HOP-92 NSCLC
OVCAR-3 ovarian = test system: OVCAR-3 ovarian
ACHN renal = test system: ACHN renal
MDA-MB-231 breast = test system: MDA-MB-231 breast
HS 578T breast = test system: HS 578T breast
HOP-62 NSCLC = test system: HOP-62 NSCLC
MOLT-4 leukemia = test system: MOLT-4 leukemia
HCT-15 colon = test system: HCT-15 colon
DMS 273 small cell lung = test system: DMS 273 small cell lung
PC-3 prostate = test system: PC-3 prostate
M14 melanoma = test system: M14 melanoma
OVCAR-4 ovarian = test system: OVCAR-4 ovarian
MCF7 breast = test system: MCF7 breast
SF-268 CNS = test system: SF-268 CNS
SF-539 CNS = test system: SF-539 CNS

In the case of `COc1ccc(/C=C2\C(=O)NC(=O)c3ccccc32)cc1OC`, the TGI (UO-31 renal) is reported as 80 µM, the TGI (MDA-MB-435) is reported as 99.1 µM and the TGI (OVCAR-8 ovarian) is reported as 42.2 µM. For the same compound, the TGI (XF 498 CNS) was 42.5 µM, the TGI (HT29 colon) was > 100 µM and the TGI (SNB-78 CNS) was > 66.2 µM. The TGI (LOX IMVI melanoma) was 55.8 µM, the TGI (RPMI-8226 leukemia) was 47.9 µM and the TGI (UACC-257 melanoma) was > 100 µM. For the same compound, the TGI (SK-OV-3 ovarian) was 81 µM, the TGI (NCI-H460 lung) was 67.4 µM and the TGI (DLD-1 colon) was 19.2 µM. For the same compound, the TGI (MDA-N) was > 66.8 µM, the TGI (SR leukemia) was 18.9 µM and the TGI (COLO 205 colon) was > 100 µM. The TGI (TK-10 renal) was > 100 µM, the TGI (A498 renal) was > 100 µM and the TGI (SK-MEL-2 melanoma) was > 94.5 µM. The TGI (K-562 leukemia) was > 70.9 µM, the TGI (SW-620 colon) was 46.3 µM and the TGI (HOP-18 NSCLC) was > 100 µM. For the same compound, the TGI (SK-MEL-5 melanoma) was > 94.4 µM, the TGI (T-47D breast) was > 100 µM and the TGI (786-0 renal) was 44.5 µM. For the same compound, the TGI (KM12 colon) was > 100 µM, the TGI (CAKI-1 renal) was > 100 µM and the TGI (BT-549 breast) was > 100 µM. The TGI (UACC-62 melanoma) was 78.2 µM, the TGI (OVCAR-5 ovarian) was > 100 µM and the TGI (NCI-H23 lung) was > 90.5 µM. The TGI (MALME-3M melanoma) was > 100 µM, the TGI (DMS 114 small cell lung) was 18.4 µM and the TGI (M19-MEL melanoma) was > 100 µM. For the same compound, the TGI (U251 CNS) was > 63.5 µM, the TGI (RXF 393 renal) was 33.9 µM and the TGI (A549 NSCLC) was > 100 µM. The TGI (SK-MEL-28 melanoma) was > 100 µM, the TGI (NCI-H522 lung) was 49.6 µM and the TGI (HCC-2998 colon) was > 100 µM. For the same compound, the TGI (DU-145 prostate) was > 100 µM, the TGI (KM20L2 colon) was > 100 µM and the TGI (SNB-19 CNS) was > 93.6 µM. The TGI (SF-295 CNS) was > 100 µM, the TGI (EKVX NSCLC) was > 100 µM and the TGI (NCI-H226 lung) was 99 µM. For the same compound, the TGI (SN12C renal) was > 100 µM, the TGI (HL-60(TB) leukemia) was 16.2 µM and the TGI (HCT-116 colon) was 43.1 µM. For the same compound, the TGI (CCRF-CEM leukemia) was 21.9 µM, the TGI (IGROV1 ovarian) was > 83.2 µM and the TGI (NCI/ADR-RES ovarian) was > 100 µM. The TGI (SNB-75 CNS) was > 87.5 µM, the TGI (HOP-92 NSCLC) was 39.8 µM and the TGI (OVCAR-3 ovarian) was > 26.4 µM. The TGI (ACHN renal) was > 74.7 µM, the TGI (MDA-MB-231 breast) was > 100 µM and the TGI (HS 578T breast) was > 100 µM. For the same compound, the TGI (HOP-62 NSCLC) was 58.3 µM, the TGI (MOLT-4 leukemia) was 76.6 µM and the TGI (HCT-15 colon) was > 100 µM. The TGI (DMS 273 small cell lung) was > 100 µM, the TGI (PC-3 prostate) was > 100 µM and the TGI (M14 melanoma) was > 100 µM. For the same compound, the TGI (OVCAR-4 ovarian) was 62.1 µM, the TGI (MCF7 breast) was > 100 µM and the TGI (SF-268 CNS) was > 69.9 µM. The TGI (SF-539 CNS) was 22.9 µM.

With `Cc1ccccc1Cn1nc2ccccc2cc1=O` the TGI (UO-31 renal) was > 100 µM, the TGI (OVCAR-8 ovarian) was > 100 µM and the TGI (XF 498 CNS) was > 100 µM. For the same compound, the TGI (HT29 colon) was > 100 µM, the TGI (SNB-78 CNS) was > 100 µM and the TGI (LOX IMVI melanoma) was > 100 µM. The TGI (RPMI-8226 leukemia) was > 100 µM, the TGI (UACC-257 melanoma) was > 100 µM and the TGI (SK-OV-3 ovarian) was > 100 µM. For the same compound, the TGI (NCI-H460 lung) was > 100 µM, the TGI (DLD-1 colon) was > 100 µM and the TGI (COLO 205 colon) was > 100 µM. The TGI (TK-10 renal) was > 100 µM, the TGI (A498 renal) was > 100 µM and the TGI (SK-MEL-2 melanoma) was > 100 µM. The TGI (K-562 leukemia) was > 100 µM, the TGI (SW-620 colon) was > 100 µM and the TGI (HOP-18 NSCLC) was > 100 µM. The TGI (SK-MEL-5 melanoma) was > 100 µM, the TGI (786-0 renal) was > 100 µM and the TGI (KM12 colon) was > 100 µM. The TGI (CAKI-1 renal) was > 100 µM, the TGI (UACC-62 melanoma) was > 100 µM and the TGI (OVCAR-5 ovarian) was > 100 µM. The TGI (NCI-H23 lung) was > 100 µM, the TGI (MALME-3M melanoma) was > 100 µM and the TGI (DMS 114 small cell lung) was > 100 µM. For the same compound, the TGI (M19-MEL melanoma) was > 100 µM, the TGI (U251 CNS) was > 100 µM and the TGI (A549 NSCLC) was > 100 µM. For the same compound, the TGI (SK-MEL-28 melanoma) was > 100 µM, the TGI (HCC-2998 colon) was > 100 µM and the TGI (KM20L2 colon) was > 100 µM. The TGI (SNB-19 CNS) was > 100 µM, the TGI (SF-295 CNS) was > 100 µM and the TGI (EKVX NSCLC) was > 100 µM. The TGI (NCI-H226 lung) was > 100 µM, the TGI (SN12C renal) was > 100 µM and the TGI (HCT-116 colon) was > 100 µM. The TGI (CCRF-CEM leukemia) was > 100 µM, the TGI (IGROV1 ovarian) was > 100 µM and the TGI (SNB-75 CNS) was > 100 µM. For the same compound, the TGI (HOP-92 NSCLC) was > 100 µM, the TGI (OVCAR-3 ovarian) was > 100 µM and the TGI (ACHN renal) was > 100 µM. The TGI (HOP-62 NSCLC) was > 100 µM, the TGI (HCT-15 colon) was > 100 µM and the TGI (DMS 273 small cell lung) was > 100 µM. The TGI (M14 melanoma) was > 100 µM, the TGI (OVCAR-4 ovarian) was > 100 µM and the TGI (SF-268 CNS) was > 100 µM. The TGI (SF-539 CNS) was > 100 µM.

In the case of `COc1ccc(CNc2cnc3ccc(N)cc3n2)cc1OC`, the TGI (UO-31 renal) is reported as > 100 µM, the TGI (OVCAR-8 ovarian) is reported as > 100 µM and the TGI (XF 498 CNS) is reported as > 100 µM. For the same compound, the TGI (HT29 colon) was > 100 µM, the TGI (SNB-78 CNS) was > 100 µM and the TGI (LOX IMVI melanoma) was > 100 µM. The TGI (RPMI-8226 leukemia) was > 100 µM, the TGI (UACC-257 melanoma) was > 100 µM and the TGI (NCI-H460 lung) was > 100 µM. The TGI (DLD-1 colon) was > 100 µM, the TGI (SR leukemia) was > 100 µM and the TGI (COLO 205 colon) was > 100 µM. For the same compound, the TGI (TK-10 renal) was > 100 µM, the TGI (SK-MEL-2 melanoma) was > 100 µM and the TGI (K-562 leukemia) was > 100 µM. For the same compound, the TGI (SW-620 colon) was > 100 µM, the TGI (HOP-18 NSCLC) was > 100 µM and the TGI (SK-MEL-5 melanoma) was > 100 µM. The TGI (786-0 renal) was > 100 µM, the TGI (KM12 colon) was > 100 µM and the TGI (CAKI-1 renal) was > 100 µM. For the same compound, the TGI (OVCAR-5 ovarian) was > 100 µM, the TGI (NCI-H23 lung) was > 100 µM and the TGI (MALME-3M melanoma) was > 100 µM. For the same compound, the TGI (DMS 114 small cell lung) was > 100 µM, the TGI (M19-MEL melanoma) was > 100 µM and the TGI (A549 NSCLC) was > 100 µM. For the same compound, the TGI (SK-MEL-28 melanoma) was > 100 µM, the TGI (NCI-H522 lung) was > 100 µM and the TGI (HCC-2998 colon) was > 100 µM. For the same compound, the TGI (SNB-19 CNS) was > 100 µM, the TGI (SF-295 CNS) was > 100 µM and the TGI (EKVX NSCLC) was > 100 µM. The TGI (NCI-H226 lung) was > 100 µM, the TGI (SN12C renal) was > 100 µM and the TGI (HL-60(TB) leukemia) was > 100 µM. For the same compound, the TGI (HCT-116 colon) was > 100 µM, the TGI (CCRF-CEM leukemia) was > 100 µM and the TGI (SNB-75 CNS) was > 100 µM. The TGI (OVCAR-3 ovarian) was > 100 µM, the TGI (ACHN renal) was > 100 µM and the TGI (MOLT-4 leukemia) was > 100 µM. The TGI (HCT-15 colon) was > 100 µM, the TGI (DMS 273 small cell lung) was > 100 µM and the TGI (M14 melanoma) was > 100 µM. For the same compound, the TGI (OVCAR-4 ovarian) was > 100 µM, the TGI (SF-268 CNS) was > 100 µM and the TGI (SF-539 CNS) was > 100 µM.
